This is an account of results in ChEMBL document CHEMBL1128749, “1-Aminoindan-1,5-dicarboxylic acid: a novel antagonist at phospholipase C-linked metabotropic glutamate receptors” (J Med Chem, 1995).

By IC50 is commonly meant the point on the concentration scale where inhibition reaches its midpoint. Lower therefore signals inhibition by little substance.

The target in test [1] is T1, Metabotropic glutamate receptor 1 (Homo sapiens, UniProt Q13255). The test can be described thus: Ability to inhibit mGluR1-alpha-mediated PI (phospho inositol) hydrolysis was determined at BHK cells at 100 Micro M Concentration; Not effective at the highest concentration tested (100 uM). Type of test: functional, cell-based, Mesocricetus auratus.
Test [2] deals with T2, Metabotropic glutamate receptor 2 (Homo sapiens, UniProt Q14416). The experiment in a line: Ability to inhibit mGluR2-alpha induced cAMP formation was determined at BHK cells at 100 Micro M Concentration; Not effective at the highest concentration tested (100 uM). Type of test: functional, cell-based, Mesocricetus auratus. For orientation: Changes in cAMP serve as a functional read-out for many G protein-coupled receptors.

For test [3], the target named is T3, Metabotropic glutamate receptor 4 (Homo sapiens, UniProt Q14833). The experiment in a line: Ability to inhibit mGluR4-alpha induced cAMP formation was determined at BHK cells at 100 Micro M Concentration; Not effective at the highest concentration tested (100 uM). In kind it is functional, cell-based, Mesocricetus auratus.
Test [4] deals with T1, Metabotropic glutamate receptor 1. The experiment in a line: Ability to inhibit mGluR1-alpha-mediated PI (phospho inositol) hydrolysis was determined at BHK cells at 100 Micro M Concentration. Type of test: functional, cell-based, Mesocricetus auratus.
The target of test [5] is T3, Metabotropic glutamate receptor 4. The test can be described thus: Ability to inhibit mGluR4-alpha induced cAMP formation was determined at BHK cells at 100 Micro M Concentration. In kind it is functional, cell-based, Mesocricetus auratus.
Test [6] addresses T2, Metabotropic glutamate receptor 2. The experiment in a line: Ability to inhibit mGluR2-alpha induced cAMP formation was determined at BHK cells at 100 Micro M Concentration. In kind it is functional, cell-based, Mesocricetus auratus.
Test [7] has the same target. The experiment in a line: Ability to inhibit mGluR2-alpha induced cAMP formation was determined at BHK cells at 100 Micro M Concentration; Not effective at the highest concentration tested (100 µM).

T1 sequence (Q13255 whole entry): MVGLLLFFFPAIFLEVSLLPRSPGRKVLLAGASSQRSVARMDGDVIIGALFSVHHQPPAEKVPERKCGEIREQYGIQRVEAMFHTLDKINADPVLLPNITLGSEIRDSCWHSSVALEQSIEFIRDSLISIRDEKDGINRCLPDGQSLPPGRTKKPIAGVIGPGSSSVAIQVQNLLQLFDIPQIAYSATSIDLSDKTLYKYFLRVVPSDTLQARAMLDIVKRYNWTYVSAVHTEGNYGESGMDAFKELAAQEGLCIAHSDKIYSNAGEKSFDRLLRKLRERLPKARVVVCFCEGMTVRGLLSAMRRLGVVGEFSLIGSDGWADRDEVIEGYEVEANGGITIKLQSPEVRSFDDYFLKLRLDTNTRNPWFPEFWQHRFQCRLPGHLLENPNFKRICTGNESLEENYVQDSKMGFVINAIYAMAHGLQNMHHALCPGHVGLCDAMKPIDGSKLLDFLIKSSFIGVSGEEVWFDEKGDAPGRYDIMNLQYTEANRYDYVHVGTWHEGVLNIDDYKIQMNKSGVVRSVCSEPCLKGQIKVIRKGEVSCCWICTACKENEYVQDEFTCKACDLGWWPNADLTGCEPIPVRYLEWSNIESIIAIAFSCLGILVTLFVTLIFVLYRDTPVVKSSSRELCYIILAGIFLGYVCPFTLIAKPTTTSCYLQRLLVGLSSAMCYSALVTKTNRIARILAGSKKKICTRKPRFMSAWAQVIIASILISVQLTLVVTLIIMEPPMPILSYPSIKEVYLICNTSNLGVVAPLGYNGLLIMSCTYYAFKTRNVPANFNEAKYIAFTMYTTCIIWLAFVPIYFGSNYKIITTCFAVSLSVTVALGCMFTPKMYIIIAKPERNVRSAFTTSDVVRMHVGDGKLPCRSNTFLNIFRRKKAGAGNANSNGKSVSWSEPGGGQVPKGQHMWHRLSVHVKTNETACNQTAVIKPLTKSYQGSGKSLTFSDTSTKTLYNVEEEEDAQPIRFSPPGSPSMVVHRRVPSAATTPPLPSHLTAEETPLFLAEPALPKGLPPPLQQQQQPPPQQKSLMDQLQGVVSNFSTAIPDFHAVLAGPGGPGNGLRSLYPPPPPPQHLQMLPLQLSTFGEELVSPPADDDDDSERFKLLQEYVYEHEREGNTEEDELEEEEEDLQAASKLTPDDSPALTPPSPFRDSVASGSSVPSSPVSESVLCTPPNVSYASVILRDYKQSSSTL
T2 sequence (Q14416 whole entry): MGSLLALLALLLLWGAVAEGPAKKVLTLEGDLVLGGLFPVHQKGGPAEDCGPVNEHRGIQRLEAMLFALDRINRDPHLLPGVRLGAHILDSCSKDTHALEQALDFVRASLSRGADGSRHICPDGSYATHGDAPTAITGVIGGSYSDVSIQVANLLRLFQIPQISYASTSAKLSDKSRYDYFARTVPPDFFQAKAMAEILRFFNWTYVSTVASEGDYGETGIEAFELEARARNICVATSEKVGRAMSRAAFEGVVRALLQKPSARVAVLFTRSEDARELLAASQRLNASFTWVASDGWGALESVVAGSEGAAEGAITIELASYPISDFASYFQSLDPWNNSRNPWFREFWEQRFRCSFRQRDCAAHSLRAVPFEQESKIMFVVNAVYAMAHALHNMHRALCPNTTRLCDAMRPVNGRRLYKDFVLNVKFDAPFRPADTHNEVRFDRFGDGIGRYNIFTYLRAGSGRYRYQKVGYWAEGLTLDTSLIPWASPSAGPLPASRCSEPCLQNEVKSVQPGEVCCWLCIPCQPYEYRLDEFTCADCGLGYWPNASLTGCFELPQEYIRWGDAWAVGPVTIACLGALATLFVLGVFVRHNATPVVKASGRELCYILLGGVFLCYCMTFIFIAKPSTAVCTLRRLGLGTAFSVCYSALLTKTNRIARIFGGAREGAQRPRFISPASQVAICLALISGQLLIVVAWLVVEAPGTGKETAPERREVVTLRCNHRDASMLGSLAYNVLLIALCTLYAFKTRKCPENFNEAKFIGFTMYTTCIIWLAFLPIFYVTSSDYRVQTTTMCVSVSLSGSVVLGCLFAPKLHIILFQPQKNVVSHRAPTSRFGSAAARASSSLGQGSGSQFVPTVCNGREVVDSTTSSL
T3 sequence (Q14833 whole entry): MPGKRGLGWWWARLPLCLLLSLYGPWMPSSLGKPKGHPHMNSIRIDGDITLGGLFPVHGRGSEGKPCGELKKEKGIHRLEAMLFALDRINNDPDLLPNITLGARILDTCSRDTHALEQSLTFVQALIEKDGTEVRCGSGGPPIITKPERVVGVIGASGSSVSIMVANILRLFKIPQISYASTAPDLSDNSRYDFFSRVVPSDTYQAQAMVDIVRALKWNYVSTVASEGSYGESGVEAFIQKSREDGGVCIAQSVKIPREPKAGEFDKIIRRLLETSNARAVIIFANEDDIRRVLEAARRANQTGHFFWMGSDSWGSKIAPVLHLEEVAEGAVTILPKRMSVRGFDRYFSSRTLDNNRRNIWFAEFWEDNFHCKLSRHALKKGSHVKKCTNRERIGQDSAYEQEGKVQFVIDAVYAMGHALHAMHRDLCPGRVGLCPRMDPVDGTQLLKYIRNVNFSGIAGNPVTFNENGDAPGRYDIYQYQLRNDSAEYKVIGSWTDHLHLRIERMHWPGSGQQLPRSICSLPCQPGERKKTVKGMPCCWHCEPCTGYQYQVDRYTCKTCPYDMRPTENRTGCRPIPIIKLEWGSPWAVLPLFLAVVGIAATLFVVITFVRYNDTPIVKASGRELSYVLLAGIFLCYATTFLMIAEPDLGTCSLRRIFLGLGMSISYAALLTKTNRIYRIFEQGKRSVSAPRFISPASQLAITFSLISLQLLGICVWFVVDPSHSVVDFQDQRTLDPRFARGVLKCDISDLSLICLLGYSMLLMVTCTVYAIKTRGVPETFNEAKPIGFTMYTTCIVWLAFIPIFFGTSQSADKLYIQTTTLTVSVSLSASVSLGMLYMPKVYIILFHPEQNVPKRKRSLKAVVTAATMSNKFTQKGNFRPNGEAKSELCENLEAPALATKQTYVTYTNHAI

Consider `NC1(C(=O)O)CCc2c(C(=O)O)cccc21` (stereo not drawn), for which the IC50 entry in test [1], in test [2] and in test [3] was “No effect” throughout.

Regarding `CC(N)(C(=O)O)c1ccc(C(=O)O)cc1` (stereo not drawn), the IC50 is 155 µM in test [4], over 1000 µM in test [5] and 340 µM in test [6].

Consider `NC1(C(=O)O)CCc2cc(C(=O)O)ccc21` (stereo not drawn), for which the IC50 entry in test [2] was “No effect”; in test [4], 7 µM; in test [3], “No effect”.

`NC(C(=O)O)c1ccc(C(=O)O)cc1` (stereo not drawn): the values for the IC50 in test [4], in test [5] and in test [6] were 65 µM, over 1000 µM and 577 µM, respectively.

Turning to `NC1(C(=O)O)CCc2ccc(C(=O)O)cc21` (stereo not drawn), the IC50 entry in test [1], in test [7] and in test [3] was “No effect” throughout.

Turning to `NC(C(=O)O)c1ccc(C(=O)O)c(O)c1` (stereo not drawn), the IC50 in test [4] was 40 µM; in test [5] it was over 1000 µM; in test [6], 48 µM.
